Laboratory results: the supplement of paper PMC10307832

Columns and labels:
Experiment in all cases: relative viability (nuclei count vs DMSO), 5 days (fraction); higher = more cells survive
[1] = compound: CC1=CN2C(=O)C=C(N=C2C(=C1)C(C)NC3=CC=CC=C3)N4CCOCC4 [TGX 221] + COc1cc2c(Oc3ccc(NC(=O)C4(C(=O)Nc5ccc(F)cc5)CC4)cc3F)ccnc2cc1OCCCN1CCOCC1 [Foretinib] (partner 0.25 µM)
How it was run: (§1)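 Each reported value is a median over duplicate plates. It expresses relative viability: treated-well nuclei count divided by vehicle-well nuclei count. Lung cancer cell lines in 1536-well plates were dosed by pin tool a day after seeding, alone with one drug or with a fixed anchor-drug dose plus five library-drug doses (not always all listed) in √10 steps, and nuclei were counted after 5 days.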

[2] = compound: CC1=CN2C(=O)C=C(N=C2C(=C1)C(C)NC3=CC=CC=C3)N4CCOCC4 [TGX 221] + CC(C)C[C@H](NC(=O)[C@H](Cc1ccccc1)NC(=O)c1cnccn1)B(O)O [Bortezomib] (partner 0.002 µM)
How it was run: as §1

[3] = compound: C1=CC=C(C(=C1)C2=CC=C(C=C2)C3=CSC4=C3C(=C(C(=O)N4)C#N)O)O + Nc1ncn([C@H]2C[C@H](O)[C@@H](CO)O2)c(=O)n1 [Decitabine] (partner 2 µM)
How it was run: as §1

| Cell Line | relative viability ([1]; first compound 0.08 µM) | relative viability ([1]; first compound 0.253 µM) | relative viability ([1]; first compound 0.8 µM) | relative viability ([1]; first compound 2.53 µM) | relative viability ([1]; first compound 8 µM) | relative viability ([2]; first compound 0.253 µM) | relative viability ([2]; first compound 0.8 µM) | relative viability ([2]; first compound 8 µM) | relative viability ([3]; first compound 0.08 µM) | relative viability ([3]; first compound 0.253 µM) | relative viability ([3]; first compound 0.8 µM) | relative viability ([3]; first compound 2.53 µM) | relative viability ([3]; first compound 8 µM) | relative viability ([2]; first compound 2.53 µM) | relative viability ([2]; first compound 0.08 µM) |
| --- | --- | --- | --- | --- | --- | --- | --- | --- | --- | --- | --- | --- | --- | --- | --- |
| CAL-12T | 0.994 | 1.12 | 1.27 | 1.15 | 1.09 | 0.952 | 0.918 | 1.05 | – | – | – | – | – | – | – |
| 201T | 1.22 | 1.09 | 1.13 | 0.931 | 0.817 | 1.15 | 1.08 | 0.996 | 0.844 | 0.826 | 0.875 | 0.894 | 0.916 | 1.05 | – |
| HCC-366 | 0.844 | 0.892 | 0.96 | 0.902 | 0.813 | 1.03 | 1.12 | 1.09 | – | 0.46 | 0.343 | 0.332 | 0.358 | 0.99 | 0.863 |
| NCI-H1944 | 0.844 | 0.819 | 0.873 | 0.746 | 0.612 | – | – | – | 0.454 | 0.44 | 0.39 | 0.468 | 0.465 | – | – |
| NCI-H1651 | 0.768 | 0.611 | 0.729 | 0.586 | 0.609 | 0.96 | 0.919 | 0.858 | 0.538 | 0.639 | 0.548 | 0.593 | 0.464 | 0.868 | – |
| LCLC-97TM1 | 0.949 | 1.01 | 0.904 | 0.959 | 0.802 | 0.421 | 0.504 | 0.405 | 0.237 | 0.267 | 0.226 | 0.252 | 0.226 | 0.736 | 0.586 |
| LC-2-ad | 0.865 | 0.85 | 0.95 | 0.825 | 0.751 | – | 1.07 | 0.928 | 0.743 | 0.865 | 0.832 | 0.777 | 0.791 | 1.05 | 0.978 |
| NCI-H2347 | – | 0.879 | 0.769 | 0.622 | 0.49 | 0.899 | 0.886 | 0.752 | 0.629 | 0.605 | 0.578 | 0.675 | 0.566 | 0.877 | – |
| NCI-H2009 | 1.12 | 1.14 | 1.25 | 1.14 | 0.789 | 1.02 | 1.02 | 0.769 | 0.384 | 0.47 | 0.415 | 0.372 | 0.36 | 0.948 | 0.995 |
| NCI-H1650 | 0.953 | 0.751 | 1.05 | 0.922 | 0.639 | 0.22 | 0.213 | 0.201 | 0.456 | 0.535 | 0.496 | 0.384 | 0.367 | 0.198 | 0.2 |
| NCI-H1703 | 0.328 | 0.275 | 0.335 | 0.317 | 0.337 | 0.323 | 0.305 | 0.281 | – | – | – | – | – | 0.234 | 0.244 |
| NCI-H2228 | 0.738 | 0.853 | 0.787 | 0.754 | 0.72 | 0.787 | 1.21 | 0.751 | – | – | – | – | – | 0.77 | 1.02 |
| LK-2 | 1.2 | 1.2 | 1.53 | 1.17 | 0.998 | – | – | – | 0.178 | 0.228 | 0.236 | 0.343 | 0.314 | – | – |
| SW 900 | 0.682 | 0.651 | 0.788 | 0.546 | 0.726 | – | – | – | – | 0.452 | 0.467 | 0.459 | 0.446 | – | – |
| NCI-H358 | 0.702 | 0.664 | 0.711 | 0.597 | 0.587 | – | – | – | 0.205 | 0.23 | 0.205 | 0.2 | 0.177 | – | – |
| HCC-44 | – | – | – | – | – | 0.935 | 0.945 | 0.997 | 1.01 | 1.05 | 0.985 | 0.895 | 0.934 | 0.851 | 0.951 |
| NCI-H1563 | 0.855 | 0.875 | 0.936 | 0.836 | 0.68 | 0.783 | 0.795 | 0.687 | – | – | – | – | – | 0.719 | 0.925 |
| Calu-6 | 0.888 | 0.8 | 0.88 | 0.923 | 0.815 | 0.973 | 1.22 | 0.896 | – | – | – | – | – | 1 | 1.02 |
| NCI-H1623 | 0.815 | 0.858 | 0.827 | 0.826 | 0.77 | – | – | – | – | – | – | – | – | – | – |
| EBC-1 | 0.0971 | 0.106 | 0.102 | 0.1 | 0.11 | 0.51 | 0.619 | 0.408 | – | – | – | – | – | 0.4 | 0.523 |
| NCI-H522 | – | – | – | – | – | – | – | – | 0.739 | 0.772 | 0.674 | 0.628 | 0.671 | – | – |
| NCI-H1648 | – | – | – | – | – | – | – | – | – | 0.537 | 0.493 | 0.478 | 0.458 | – | – |
| A549 | 1.05 | 0.917 | 0.997 | 1.06 | 0.801 | – | – | – | – | 0.315 | 0.207 | 0.306 | 0.211 | – | – |
| IA-LM | 1.18 | 1.04 | 1.08 | 1.22 | 1.11 | 1.02 | 1.04 | 0.735 | – | – | – | – | – | 0.869 | 0.915 |
